Results taken from patent publication US20080199485A1 (priority 2007, published 2008).
“Also recorded” adds a separate entry of the source.

Key:
[1] = tested on: TCR-transgenic gp33-specific T cells; assay type: cell-based, mouse
[2] = tested on: EL-4 cells pulsed with gp33 peptide; assay type: cell-based, mouse

**Q.** With KAVYNFATM [gp33] as the sequence, how does the IFN-γ production [1] read?
**A.** transiently produced at an early stage

**Q.** What about the IFN-γ secretion [1] of the same sequence?
**A.** higher amounts of IFN-gamma

**Q.** What about the IL-10 production [1] of the same sequence?
**A.** high amounts of IL-10 with an earlier onset

**Q.** What about the CTL response [2] of the same sequence?
**A.** strongest CTL response; also recorded: weaker CTL responses
